Laboratory results published in ChEMBL document CHEMBL5370528, “Synthesis-accessibility-oriented design of c-Jun N-terminal kinase 1 inhibitor” (Eur J Med Chem, 2023).
Active and inactive are the calls of the source. No cut-off for these calls is given here.

Tests used:
[1] = molecular target: T1, Mitogen-activated protein kinase 10 (Homo sapiens, UniProt P53779); assay: Inhibition of N-terminal GST-tagged recombinant full length human JNK3 expressed in baculovirus infected Sf9 cells using IPTTPITTTYFFFKKK as substrate at 0.1 uM incubated for 60 mins in the presence of ATP by ADP-Glo reagent based luminescence assay relative to control
[2] = molecular target: c-Jun N-terminal kinase, JNK (Homo sapiens) (UniProt P45983+P53779+P45984); assay: Inhibition of JNK in human NCI-H1299 cells assessed as inhibition of anisomycin-activated c-Jun phosphorylation preincubated for 1 hrs followed by anisomycin activation for 1 hrs by Western blot analysis; format: cell-based; conditions: dose 2-50 µM, time 2.0 hrs
[3] = molecular target: Mitogen-activated protein kinase 7 (Homo sapiens) (UniProt Q13164); assay: Inhibition of ERK5 (unknown origin) at 1 uM preincubated for 10 mins followed by substrate addition and measured after 60 mins in the presence of ATP by ADP-Glo reagent based luminescence assay relative to control; conditions: time 70.0 min
Mus musculus [4] = assay: Anti-fibrotic activity in bleomycin-induced C57BL/6 mouse model of pulmonary fibrosis assessed as alleviation of alveolar collapse in lungs at 25 to 75 mg/kg, po administered twice a day for 3 weeks by H&E staining based analysis; format: functional, organism-based; conditions: dose 25-75 mg/kg
[5] = molecular target: Mitogen-activated protein kinase 3 (Homo sapiens) (UniProt P27361); assay: Inhibition of ERK1 (unknown origin) at 1 uM preincubated for 10 mins followed by substrate addition and measured after 60 mins in the presence of ATP by ADP-Glo reagent based luminescence assay relative to control; conditions: time 70.0 min
Mus musculus [6] = assay: Anti-fibrotic activity in bleomycin-induced C57BL/6 mouse model of pulmonary fibrosis assessed as reduction in alveolar space collapse at 25 to 75 mg/kg, po administered twice a day for 3 weeks by Masson's trichome staining based analysis; format: functional, organism-based; conditions: dose 25-75 mg/kg
[7] = molecular target: T1, Mitogen-activated protein kinase 10; assay: Inhibition of N-terminal GST-tagged recombinant full length human JNK3 expressed in baculovirus infected Sf9 cells using IPTTPITTTYFFFKKK as substrate incubated for 60 mins in the presence of ATP by ADP-Glo reagent based luminescence assay
[8] = molecular target: CDK2/Cyclin A2 (Homo sapiens) (UniProt P24941+P20248); assay: Inhibition of CDK2/Cyclin A2 (unknown origin) at 1 uM preincubated for 10 mins followed by substrate addition and measured after 60 mins in the presence of ATP by ADP-Glo reagent based luminescence assay relative to control; format: protein-complex assay; conditions: time 70.0 min
[9] = AUC (0 to infinity) in Sprague-Dawley rat at 75 mg/kg, po by HPLC-UV analysis; format: ADME, organism-based; parameters: dose 75 mg/kg, route po; conditions: in vivo
Mus musculus [10] = assay: Anti-fibrotic activity in bleomycin-induced C57BL/6 mouse model of pulmonary fibrosis assessed as alleviation of alveolar wall thickening in lungs at 25 to 75 mg/kg, po administered twice a day for 3 weeks by H&E staining based analysis; format: functional, organism-based; conditions: dose 25-75 mg/kg
[11] = molecular target: T2, Mitogen-activated protein kinase 9 (Homo sapiens, UniProt P45984); assay: Inhibition of N-terminal GST-tagged recombinant full length human JNK2 expressed in baculovirus infected Sf9 cells using IPTTPITTTYFFFKKK as substrate at 0.1 uM incubated for 60 mins in the presence of ATP by ADP-Glo reagent based luminescence assay relative to control
Target sequence in this assay (P45984 whole entry, looked up): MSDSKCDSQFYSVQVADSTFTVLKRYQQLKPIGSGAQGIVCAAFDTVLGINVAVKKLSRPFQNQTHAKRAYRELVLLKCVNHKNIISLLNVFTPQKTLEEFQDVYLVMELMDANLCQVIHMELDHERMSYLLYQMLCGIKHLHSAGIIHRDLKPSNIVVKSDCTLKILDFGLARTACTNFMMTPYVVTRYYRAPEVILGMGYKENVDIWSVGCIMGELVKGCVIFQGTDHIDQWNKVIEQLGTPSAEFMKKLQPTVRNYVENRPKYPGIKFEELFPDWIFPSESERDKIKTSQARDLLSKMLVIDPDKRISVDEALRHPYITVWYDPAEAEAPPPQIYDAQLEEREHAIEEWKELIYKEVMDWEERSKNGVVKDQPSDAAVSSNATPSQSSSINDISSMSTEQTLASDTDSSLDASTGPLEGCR

[12] = Cmax in Sprague-Dawley rat at 5 mg/kg, iv by HPLC-UV analysis; format: ADME, organism-based; parameters: dose 5 mg/kg, route iv; conditions: in vivo
[13] = Apparent volume of distribution in Sprague-Dawley rat at 75 mg/kg, po by HPLC-UV analysis; format: ADME, organism-based; conditions: in vivo
[14] = MRT(0 to infinity) in Sprague-Dawley rat at 5 mg/kg, iv by HPLC-UV analysis; format: ADME, organism-based; conditions: in vivo
[15] = molecular target: Dual specificity mitogen-activated protein kinase kinase 1 (Homo sapiens) (UniProt Q02750); assay: Inhibition of MAP2K1 (unknown origin) at 1 uM preincubated for 10 mins followed by substrate addition and measured after 60 mins in the presence of ATP by ADP-Glo reagent based luminescence assay relative to control; conditions: time 70.0 min
Mus musculus [16] = assay: Anti-fibrotic activity in bleomycin-induced C57BL/6 mouse model of pulmonary fibrosis assessed as alleviation of body weight loss at 25 to 75 mg/kg, po administered twice a day for 3 weeks; format: functional, organism-based; conditions: dose 25-75 mg/kg
[17] = molecular target: Dual specificity mitogen-activated protein kinase kinase 2 (Homo sapiens) (UniProt P36507); assay: Inhibition of MAP2K2 (unknown origin) at 1 uM preincubated for 10 mins followed by substrate addition and measured after 60 mins in the presence of ATP by ADP-Glo reagent based luminescence assay relative to control; conditions: time 70.0 min
[18] = Half-life in Sprague-Dawley rat at 5 mg/kg, iv by HPLC-UV analysis; format: ADME, organism-based; conditions: in vivo
Mus musculus [19] = assay: Anti-fibrotic activity in bleomycin-induced C57BL/6 mouse model of pulmonary fibrosis assessed as increase in respiratory function by measuring tidal volume at 25 to 75 mg/kg, po administered twice a day for 3 weeks by spirometry analysis; format: functional, organism-based; conditions: dose 25-75 mg/kg
Mus musculus [20] = assay: Anti-fibrotic activity in bleomycin-induced C57BL/6 mouse model of pulmonary fibrosis assessed as restoration of respiratory function at 75 mg/kg, po administered twice a day for 3 weeks by spirometry analysis; format: functional
[21] = molecular target: T2, Mitogen-activated protein kinase 9; assay: Inhibition of N-terminal GST-tagged recombinant full length human JNK2 expressed in baculovirus infected Sf9 cells using IPTTPITTTYFFFKKK as substrate incubated for 60 mins in the presence of ATP by ADP-Glo reagent based luminescence assay
Target sequence in this assay (P45984 whole entry): as the sequence (P45984 whole entry, looked up) above

[22] = Oral bioavailability in Sprague-Dawley rat at 75 mg/kg by HPLC-UV analysis; format: ADME, organism-based; conditions: in vivo
Mus musculus [23] = assay: Anti-fibrotic activity in bleomycin-induced C57BL/6 mouse model of pulmonary fibrosis assessed as protection against BLM-induced death at 75 mg/kg, po administered twice a day for 3 weeks relative to control; format: functional
[24] = molecular target: Mitogen-activated protein kinase 1 (Homo sapiens) (UniProt P28482); assay: Inhibition of ERK2 (unknown origin) at 1 uM preincubated for 10 mins followed by substrate addition and measured after 60 mins in the presence of ATP by ADP-Glo reagent based luminescence assay relative to control; conditions: time 70.0 min
[25] = molecular target: Mitogen-activated protein kinase 8 (Homo sapiens, UniProt P45983); assay: Inhibition of N-terminal GST-tagged recombinant full length human JNK1 expressed in baculovirus infected Sf9 insect cells using IPTTPITTTYFFFKKK as substrate at 1 uM incubated for 60 mins in the presence of ATP by ADP-Glo reagent based luminescence assay relative to control
[26] = molecular target: T2, Mitogen-activated protein kinase 9; assay: Inhibition of N-terminal GST-tagged recombinant full length human JNK2 expressed in baculovirus infected Sf9 cells using IPTTPITTTYFFFKKK as substrate at 1 uM incubated for 60 mins in the presence of ATP by ADP-Glo reagent based luminescence assay relative to control
Target sequence in this assay (P45984 whole entry, looked up): as above

[27] = MRT (0 to infinity) in Sprague-Dawley rat at 75 mg/kg, po by HPLC-UV analysis; format: ADME, organism-based; conditions: in vivo
[28] = Clearance in Sprague-Dawley rat at 5 mg/kg, iv by HPLC-UV analysis; format: ADME, organism-based; conditions: in vivo

T1 sequence (P53779 whole entry): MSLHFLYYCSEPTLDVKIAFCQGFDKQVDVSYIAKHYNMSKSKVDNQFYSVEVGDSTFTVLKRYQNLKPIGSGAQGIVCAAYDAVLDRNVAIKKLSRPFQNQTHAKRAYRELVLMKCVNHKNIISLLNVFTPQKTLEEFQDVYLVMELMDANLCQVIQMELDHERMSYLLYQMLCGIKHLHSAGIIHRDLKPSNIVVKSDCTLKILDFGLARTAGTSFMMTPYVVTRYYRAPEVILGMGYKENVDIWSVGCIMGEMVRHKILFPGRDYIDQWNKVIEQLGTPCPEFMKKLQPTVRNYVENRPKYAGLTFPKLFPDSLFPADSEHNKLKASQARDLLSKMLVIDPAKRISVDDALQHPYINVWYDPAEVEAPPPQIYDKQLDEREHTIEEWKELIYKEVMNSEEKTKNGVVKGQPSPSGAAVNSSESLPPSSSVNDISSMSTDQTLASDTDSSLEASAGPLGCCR
Chain of Mitogen-activated protein kinase 1 (Homo sapiens) (P28482 whole entry): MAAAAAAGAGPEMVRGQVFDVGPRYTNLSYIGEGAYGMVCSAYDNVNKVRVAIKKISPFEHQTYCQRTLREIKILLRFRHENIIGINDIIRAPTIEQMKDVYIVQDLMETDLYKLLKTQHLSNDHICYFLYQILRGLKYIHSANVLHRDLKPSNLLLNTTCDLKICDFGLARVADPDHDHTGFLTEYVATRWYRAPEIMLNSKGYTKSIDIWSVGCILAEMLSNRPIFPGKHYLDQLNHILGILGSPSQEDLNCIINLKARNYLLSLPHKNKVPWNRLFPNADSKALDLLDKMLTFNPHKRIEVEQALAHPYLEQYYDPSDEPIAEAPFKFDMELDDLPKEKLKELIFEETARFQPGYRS
Chain of Dual specificity mitogen-activated protein kinase kinase 2 (Homo sapiens) (P36507 whole entry): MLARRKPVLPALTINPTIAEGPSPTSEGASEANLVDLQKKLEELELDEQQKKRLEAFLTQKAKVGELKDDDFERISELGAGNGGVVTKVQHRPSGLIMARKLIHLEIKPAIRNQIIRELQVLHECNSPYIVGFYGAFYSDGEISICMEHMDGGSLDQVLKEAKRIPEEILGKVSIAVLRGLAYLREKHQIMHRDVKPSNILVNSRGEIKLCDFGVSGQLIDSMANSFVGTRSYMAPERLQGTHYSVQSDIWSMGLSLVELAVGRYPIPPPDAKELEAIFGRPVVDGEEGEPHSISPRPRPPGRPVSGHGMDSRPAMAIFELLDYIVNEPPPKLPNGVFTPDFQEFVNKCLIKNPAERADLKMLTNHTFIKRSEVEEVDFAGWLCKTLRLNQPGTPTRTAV
Chain of Mitogen-activated protein kinase 7 (Homo sapiens) (Q13164 2-816 limits assumed): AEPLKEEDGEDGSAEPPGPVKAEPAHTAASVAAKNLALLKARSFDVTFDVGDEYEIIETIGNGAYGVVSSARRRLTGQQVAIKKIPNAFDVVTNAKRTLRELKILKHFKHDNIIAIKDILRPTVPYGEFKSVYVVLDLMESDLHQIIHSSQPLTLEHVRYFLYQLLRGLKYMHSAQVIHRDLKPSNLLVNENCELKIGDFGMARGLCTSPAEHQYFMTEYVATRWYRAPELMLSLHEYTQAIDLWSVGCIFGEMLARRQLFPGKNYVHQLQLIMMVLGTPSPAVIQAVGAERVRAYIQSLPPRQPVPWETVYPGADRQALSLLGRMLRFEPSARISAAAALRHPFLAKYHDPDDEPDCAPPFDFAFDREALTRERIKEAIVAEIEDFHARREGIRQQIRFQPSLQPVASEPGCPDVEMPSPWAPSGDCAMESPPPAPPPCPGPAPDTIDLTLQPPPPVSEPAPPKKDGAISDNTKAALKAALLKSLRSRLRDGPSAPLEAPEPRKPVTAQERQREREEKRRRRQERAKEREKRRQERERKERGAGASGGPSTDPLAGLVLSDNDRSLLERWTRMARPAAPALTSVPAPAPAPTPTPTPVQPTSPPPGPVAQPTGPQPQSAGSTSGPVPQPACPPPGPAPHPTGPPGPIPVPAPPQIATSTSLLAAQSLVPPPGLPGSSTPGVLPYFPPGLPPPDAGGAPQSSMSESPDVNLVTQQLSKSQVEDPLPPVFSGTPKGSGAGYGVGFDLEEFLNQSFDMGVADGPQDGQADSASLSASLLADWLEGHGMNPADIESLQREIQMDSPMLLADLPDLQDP
Chain of Mitogen-activated protein kinase 8 (P45983 whole entry): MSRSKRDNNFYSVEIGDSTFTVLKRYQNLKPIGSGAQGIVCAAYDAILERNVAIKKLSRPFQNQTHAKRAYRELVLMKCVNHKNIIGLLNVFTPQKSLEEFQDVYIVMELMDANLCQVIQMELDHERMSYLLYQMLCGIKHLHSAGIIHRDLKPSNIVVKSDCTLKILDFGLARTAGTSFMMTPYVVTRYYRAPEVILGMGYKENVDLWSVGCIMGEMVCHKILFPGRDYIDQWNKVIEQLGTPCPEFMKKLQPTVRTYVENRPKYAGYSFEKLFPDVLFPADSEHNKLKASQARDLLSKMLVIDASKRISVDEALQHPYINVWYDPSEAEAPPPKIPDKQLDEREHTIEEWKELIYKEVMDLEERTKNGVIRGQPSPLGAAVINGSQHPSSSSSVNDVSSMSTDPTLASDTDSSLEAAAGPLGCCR
Chain of Mitogen-activated protein kinase 3 (Homo sapiens) (P27361 whole entry): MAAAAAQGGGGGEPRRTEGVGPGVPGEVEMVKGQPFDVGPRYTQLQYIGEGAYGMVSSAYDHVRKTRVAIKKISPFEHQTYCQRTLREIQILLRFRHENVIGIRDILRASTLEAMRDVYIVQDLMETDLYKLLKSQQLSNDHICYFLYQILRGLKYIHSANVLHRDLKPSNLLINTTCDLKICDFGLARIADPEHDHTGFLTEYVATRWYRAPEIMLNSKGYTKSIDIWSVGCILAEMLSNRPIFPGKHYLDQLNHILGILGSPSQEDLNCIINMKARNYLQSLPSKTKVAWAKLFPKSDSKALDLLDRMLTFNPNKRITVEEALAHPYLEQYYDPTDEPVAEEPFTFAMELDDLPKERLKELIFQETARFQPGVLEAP
Chain of Dual specificity mitogen-activated protein kinase kinase 1 (Homo sapiens) (Q02750 whole entry): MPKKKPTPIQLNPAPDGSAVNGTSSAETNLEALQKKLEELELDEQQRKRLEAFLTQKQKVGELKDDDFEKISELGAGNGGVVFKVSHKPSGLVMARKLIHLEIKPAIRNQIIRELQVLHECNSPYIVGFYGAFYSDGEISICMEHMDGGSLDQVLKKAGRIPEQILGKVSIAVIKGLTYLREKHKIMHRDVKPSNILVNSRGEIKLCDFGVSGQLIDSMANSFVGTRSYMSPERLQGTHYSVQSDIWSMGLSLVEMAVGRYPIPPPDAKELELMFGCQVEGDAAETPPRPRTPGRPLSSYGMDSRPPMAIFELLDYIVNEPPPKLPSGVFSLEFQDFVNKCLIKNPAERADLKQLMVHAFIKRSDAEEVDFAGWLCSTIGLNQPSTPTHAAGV

In the case of `CC(C)(C)CNc1ncc(Br)c(Nc2ccccc2C(N)=O)n1`, the inhibition [1] is reported as 78.5%, the inhibition [2] is reported as “Dose-Dependent Effect” and the inhibition [3] is reported as 13.5%. For the same compound, the Activity (Mus musculus [4]) was “Active”, the inhibition [5] was 25.9% and the Activity (Mus musculus [6]) was “Active”. For the same compound, the IC50 [7] was 33.2 nM, the inhibition [8] was 36.1% and the AUC(0-inf) [9] was 1700 ng·h/mL. For the same compound, the Activity (Mus musculus [10]) was “Active”, the inhibition [11] was 43% and the Cmax [12] was 453 ng/mL. It also gave a Vz [13] of 230.54 L/kg, an MRT inf [14] of 2.85 h and an inhibition [15] of 2.35%. The Activity (Mus musculus [16]) was “Active”, the inhibition [17] was 4.96% and the half-life [18] was 125 min. For the same compound, the Activity (Mus musculus [19]) was “Active”, the Activity (Mus musculus [20]) was ~100% and the IC50 [21] was 113 nM. The bioavailability [22] was 15.3%, the Activity (Mus musculus [23]) was 100% and the inhibition [24] was 18.7%. It also gave an inhibition [25] of 99%, an inhibition [26] of 101% and an MRT inf [27] of 5.45 h. It also gave a clearance [28] of 131 mL/min/kg.
